Data reported in publication PMC9030254, “Target Hopping from Protein Kinases to PXR: Identification of Small-Molecule Protein Kinase Inhibitors as Selective Modulators of Pregnane X Receptor from TüKIC Library” (Cells, 2022).

Key:
Experiment in all cases: Kinase profiling
Format in all cases: biochemical
STK39 = biological target: T1, STK39 (Homo sapiens, UniProt Q9UEW8)
T1 construct: purchased ProQinase (Freiburg, Germany)
Procedure: (§1) The analysis was performed by ProQinase (Freiburg, Germany).

CDK2/CycE1 = biological target: T2, CDK2/CycE1 (Homo sapiens, UniProt P24941)
T2 construct: purchased ProQinase (Freiburg, Germany)
Procedure: as §1

MAP4K2 = biological target: T3, MAP4K2 (Homo sapiens, UniProt Q12851)
T3 construct: purchased ProQinase (Freiburg, Germany)
T3 sequence (Q12851 1-820): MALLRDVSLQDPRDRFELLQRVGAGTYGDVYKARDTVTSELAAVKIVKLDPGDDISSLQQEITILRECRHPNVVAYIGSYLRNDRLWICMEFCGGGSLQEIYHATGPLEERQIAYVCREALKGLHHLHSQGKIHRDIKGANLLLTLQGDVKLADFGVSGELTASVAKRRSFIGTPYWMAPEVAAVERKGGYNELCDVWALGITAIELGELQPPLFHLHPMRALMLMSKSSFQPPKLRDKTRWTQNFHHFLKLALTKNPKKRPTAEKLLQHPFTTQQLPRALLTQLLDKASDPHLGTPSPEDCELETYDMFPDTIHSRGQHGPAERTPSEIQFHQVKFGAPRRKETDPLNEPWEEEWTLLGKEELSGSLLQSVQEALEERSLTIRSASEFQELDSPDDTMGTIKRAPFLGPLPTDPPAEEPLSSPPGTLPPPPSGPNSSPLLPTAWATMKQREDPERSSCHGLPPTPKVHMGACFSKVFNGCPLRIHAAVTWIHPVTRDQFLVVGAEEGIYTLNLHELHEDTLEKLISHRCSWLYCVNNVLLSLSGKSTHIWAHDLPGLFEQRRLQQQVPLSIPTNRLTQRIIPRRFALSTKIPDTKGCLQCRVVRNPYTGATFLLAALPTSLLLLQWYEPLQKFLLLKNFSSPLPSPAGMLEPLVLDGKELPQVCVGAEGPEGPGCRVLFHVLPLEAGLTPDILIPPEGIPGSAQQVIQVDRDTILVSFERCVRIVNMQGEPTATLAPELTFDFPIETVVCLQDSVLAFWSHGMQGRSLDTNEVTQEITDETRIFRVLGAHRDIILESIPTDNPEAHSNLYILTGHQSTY
Procedure: as §1

NEK11 = biological target: T4, NEK11 (Homo sapiens, UniProt Q8NG66)
T4 construct: purchased ProQinase (Freiburg, Germany)
T4 sequence (Q8NG66 1-645): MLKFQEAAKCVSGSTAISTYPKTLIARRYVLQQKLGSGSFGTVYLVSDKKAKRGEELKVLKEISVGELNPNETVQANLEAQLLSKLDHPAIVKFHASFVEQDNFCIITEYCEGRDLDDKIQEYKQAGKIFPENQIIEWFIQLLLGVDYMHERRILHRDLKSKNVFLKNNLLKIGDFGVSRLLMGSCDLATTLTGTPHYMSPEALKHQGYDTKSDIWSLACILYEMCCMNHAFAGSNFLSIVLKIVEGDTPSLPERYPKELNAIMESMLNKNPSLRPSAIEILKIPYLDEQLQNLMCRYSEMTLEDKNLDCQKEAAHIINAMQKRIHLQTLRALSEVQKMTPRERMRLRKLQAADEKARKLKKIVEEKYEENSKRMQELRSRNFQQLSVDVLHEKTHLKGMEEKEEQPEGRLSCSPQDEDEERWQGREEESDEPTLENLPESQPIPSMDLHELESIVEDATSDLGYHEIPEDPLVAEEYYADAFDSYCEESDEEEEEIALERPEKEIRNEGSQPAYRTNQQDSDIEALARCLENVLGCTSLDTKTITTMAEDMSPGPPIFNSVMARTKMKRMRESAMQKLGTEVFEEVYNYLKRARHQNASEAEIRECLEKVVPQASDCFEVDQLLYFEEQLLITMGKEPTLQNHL
Procedure: as §1

ARK5 = biological target: T5, ARK5 (Homo sapiens, UniProt O60285)
T5 construct: purchased ProQinase (Freiburg, Germany)
T5 sequence (O60285 1-661): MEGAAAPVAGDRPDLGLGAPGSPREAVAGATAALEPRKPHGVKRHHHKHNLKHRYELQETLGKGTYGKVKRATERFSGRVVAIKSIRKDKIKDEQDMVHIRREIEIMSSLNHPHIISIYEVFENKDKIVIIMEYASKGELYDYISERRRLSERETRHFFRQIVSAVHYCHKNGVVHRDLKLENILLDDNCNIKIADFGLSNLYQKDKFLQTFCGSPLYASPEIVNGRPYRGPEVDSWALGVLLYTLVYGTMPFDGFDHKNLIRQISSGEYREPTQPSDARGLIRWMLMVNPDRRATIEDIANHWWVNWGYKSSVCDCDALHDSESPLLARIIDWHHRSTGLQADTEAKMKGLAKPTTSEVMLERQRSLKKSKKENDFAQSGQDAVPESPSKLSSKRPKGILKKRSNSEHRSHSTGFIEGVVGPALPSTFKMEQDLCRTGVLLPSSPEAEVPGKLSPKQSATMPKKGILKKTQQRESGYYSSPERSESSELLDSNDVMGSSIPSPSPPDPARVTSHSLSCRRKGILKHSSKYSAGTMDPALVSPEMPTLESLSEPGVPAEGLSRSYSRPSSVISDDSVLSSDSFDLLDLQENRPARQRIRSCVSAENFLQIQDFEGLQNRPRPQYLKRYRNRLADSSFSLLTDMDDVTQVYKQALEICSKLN
Procedure: as §1

ROCK2 = biological target: T6, ROCK2 (Homo sapiens, UniProt O75116)
T6 construct: purchased ProQinase (Freiburg, Germany)
Procedure: as §1

PIM1 = biological target: T7, PIM1 (Homo sapiens, UniProt P11309)
T7 construct: purchased ProQinase (Freiburg, Germany)
Procedure: as §1

T6 sequence (O75116 whole entry): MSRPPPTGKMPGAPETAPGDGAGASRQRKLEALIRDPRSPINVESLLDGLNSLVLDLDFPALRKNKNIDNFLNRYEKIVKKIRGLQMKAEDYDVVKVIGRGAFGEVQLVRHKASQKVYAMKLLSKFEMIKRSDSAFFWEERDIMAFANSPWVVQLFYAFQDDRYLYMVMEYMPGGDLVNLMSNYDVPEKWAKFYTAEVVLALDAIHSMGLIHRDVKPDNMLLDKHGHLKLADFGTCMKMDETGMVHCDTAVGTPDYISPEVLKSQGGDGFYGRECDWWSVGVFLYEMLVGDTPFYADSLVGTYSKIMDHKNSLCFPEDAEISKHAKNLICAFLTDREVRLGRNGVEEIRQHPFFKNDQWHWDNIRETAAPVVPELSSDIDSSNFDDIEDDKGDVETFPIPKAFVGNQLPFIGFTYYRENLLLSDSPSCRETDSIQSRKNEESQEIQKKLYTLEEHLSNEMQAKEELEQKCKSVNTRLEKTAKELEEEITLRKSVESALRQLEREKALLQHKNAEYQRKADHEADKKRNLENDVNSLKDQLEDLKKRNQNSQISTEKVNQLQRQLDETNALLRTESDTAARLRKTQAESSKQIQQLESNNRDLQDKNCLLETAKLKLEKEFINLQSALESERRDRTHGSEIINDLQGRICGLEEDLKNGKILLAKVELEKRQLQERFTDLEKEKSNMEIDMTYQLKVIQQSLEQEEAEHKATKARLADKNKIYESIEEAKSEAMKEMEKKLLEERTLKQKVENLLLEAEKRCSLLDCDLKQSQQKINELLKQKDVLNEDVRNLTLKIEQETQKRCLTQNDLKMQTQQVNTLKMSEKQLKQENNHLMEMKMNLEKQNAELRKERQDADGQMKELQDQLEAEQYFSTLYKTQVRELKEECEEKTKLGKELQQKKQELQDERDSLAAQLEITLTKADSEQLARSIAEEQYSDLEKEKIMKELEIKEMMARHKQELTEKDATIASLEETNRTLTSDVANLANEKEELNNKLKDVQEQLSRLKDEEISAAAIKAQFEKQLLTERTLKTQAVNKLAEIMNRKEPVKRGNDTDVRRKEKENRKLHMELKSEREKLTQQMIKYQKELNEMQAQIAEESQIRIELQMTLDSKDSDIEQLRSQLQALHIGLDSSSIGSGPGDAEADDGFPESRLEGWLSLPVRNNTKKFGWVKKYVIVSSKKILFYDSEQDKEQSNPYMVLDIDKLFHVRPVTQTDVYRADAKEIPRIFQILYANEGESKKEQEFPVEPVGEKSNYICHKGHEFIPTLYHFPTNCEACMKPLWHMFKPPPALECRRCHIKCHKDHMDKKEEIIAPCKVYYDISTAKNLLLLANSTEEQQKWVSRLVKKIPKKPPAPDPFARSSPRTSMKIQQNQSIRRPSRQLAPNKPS
T7 sequence (P11309 whole entry): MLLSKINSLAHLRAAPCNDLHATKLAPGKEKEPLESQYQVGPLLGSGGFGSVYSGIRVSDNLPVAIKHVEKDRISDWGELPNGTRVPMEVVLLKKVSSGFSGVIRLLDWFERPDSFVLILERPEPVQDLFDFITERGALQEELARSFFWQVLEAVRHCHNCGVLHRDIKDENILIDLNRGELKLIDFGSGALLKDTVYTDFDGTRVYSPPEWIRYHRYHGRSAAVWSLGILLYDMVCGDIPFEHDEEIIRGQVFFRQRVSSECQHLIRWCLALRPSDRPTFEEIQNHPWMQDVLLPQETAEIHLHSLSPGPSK

Structure (SMILES): O=C(Cc1ccccc1)Nc1ccc(F)c(Nc2ccc3c(c2)CCCCC3=O)c1 [Compound 100]
- Residual activity (STK39; 1.0E-05 M): 106 % of control
- Residual activity (STK39; 1.0E-06 M): 108 % of control
- Residual activity (CDK2/CycE1; 1.0E-05 M): 118 % of control
- Residual activity (CDK2/CycE1; 1.0E-06 M): 86 % of control
- Residual activity (MAP4K2; 1.0E-05 M): 71 % of control
- Residual activity (MAP4K2; 1.0E-06 M): 94 % of control
- Residual activity (NEK11; 1.0E-05 M): 110 % of control
- Residual activity (NEK11; 1.0E-06 M): 97 % of control
- Residual activity (ARK5; 1.0E-05 M): 91 % of control
- Residual activity (ARK5; 1.0E-06 M): 90 % of control
- Residual activity (ROCK2; 1.0E-05 M): 102 % of control
- Residual activity (ROCK2; 1.0E-06 M): 101 % of control
- Residual activity (PIM1; 1.0E-05 M): 74 % of control
- Residual activity (PIM1; 1.0E-06 M): 88 % of control

Structure (SMILES): O=C(Nc1ccc(F)c(Nc2ccc3c(c2)CCCCC3=O)c1)c1cccc(F)c1 [Compound 109]
- Residual activity (STK39; 1.0E-05 M): 100 % of control
- Residual activity (STK39; 1.0E-06 M): 90 % of control
- Residual activity (CDK2/CycE1; 1.0E-05 M): 103 % of control
- Residual activity (CDK2/CycE1; 1.0E-06 M): 93 % of control
- Residual activity (MAP4K2; 1.0E-05 M): 93 % of control
- Residual activity (MAP4K2; 1.0E-06 M): 95 % of control
- Residual activity (NEK11; 1.0E-05 M): 104 % of control
- Residual activity (NEK11; 1.0E-06 M): 86 % of control
- Residual activity (ARK5; 1.0E-05 M): 88 % of control
- Residual activity (ARK5; 1.0E-06 M): 92 % of control
- Residual activity (ROCK2; 1.0E-05 M): 98 % of control
- Residual activity (ROCK2; 1.0E-06 M): 103 % of control
- Residual activity (PIM1; 1.0E-05 M): 70 % of control
- Residual activity (PIM1; 1.0E-06 M): 96 % of control
